Reference: US8716284B2, “Adamantyl diamide derivatives and uses of same” (H. Lundbeck A/S, priority 2008, dated 2014)

Biological target: T1, rat metabotropic glutamate receptor 5 (mGluR5) (Rattus norvegicus, UniProt P31424)
T1 construct: expressed in transfected cells; host or cells: HEK 293
Assay: Calcium mobilization assay (FLIPR) for negative or positive allosteric activity, HEK 293 cells
Assay type: cell-based
Details: HEK293, negative allosteric modulation, inhibition of EC80 glutamate response; read-out: FLIPR maximum inhibition
In short: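 Peak Fluo-4 calcium signal over 3 min at room temperature, minus basal, fitted by Hill equation, in stable rat mGluR5 HEK 293 cells (HBSS/HEPES pH 7.4, BSA, probenecid). Inhibition scored against EC80 glutamate, potentiation against EC20 glutamate, glutamate given with compound.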

T1 sequence (P31424 21-1171 isoform P31424-2 limits assumed): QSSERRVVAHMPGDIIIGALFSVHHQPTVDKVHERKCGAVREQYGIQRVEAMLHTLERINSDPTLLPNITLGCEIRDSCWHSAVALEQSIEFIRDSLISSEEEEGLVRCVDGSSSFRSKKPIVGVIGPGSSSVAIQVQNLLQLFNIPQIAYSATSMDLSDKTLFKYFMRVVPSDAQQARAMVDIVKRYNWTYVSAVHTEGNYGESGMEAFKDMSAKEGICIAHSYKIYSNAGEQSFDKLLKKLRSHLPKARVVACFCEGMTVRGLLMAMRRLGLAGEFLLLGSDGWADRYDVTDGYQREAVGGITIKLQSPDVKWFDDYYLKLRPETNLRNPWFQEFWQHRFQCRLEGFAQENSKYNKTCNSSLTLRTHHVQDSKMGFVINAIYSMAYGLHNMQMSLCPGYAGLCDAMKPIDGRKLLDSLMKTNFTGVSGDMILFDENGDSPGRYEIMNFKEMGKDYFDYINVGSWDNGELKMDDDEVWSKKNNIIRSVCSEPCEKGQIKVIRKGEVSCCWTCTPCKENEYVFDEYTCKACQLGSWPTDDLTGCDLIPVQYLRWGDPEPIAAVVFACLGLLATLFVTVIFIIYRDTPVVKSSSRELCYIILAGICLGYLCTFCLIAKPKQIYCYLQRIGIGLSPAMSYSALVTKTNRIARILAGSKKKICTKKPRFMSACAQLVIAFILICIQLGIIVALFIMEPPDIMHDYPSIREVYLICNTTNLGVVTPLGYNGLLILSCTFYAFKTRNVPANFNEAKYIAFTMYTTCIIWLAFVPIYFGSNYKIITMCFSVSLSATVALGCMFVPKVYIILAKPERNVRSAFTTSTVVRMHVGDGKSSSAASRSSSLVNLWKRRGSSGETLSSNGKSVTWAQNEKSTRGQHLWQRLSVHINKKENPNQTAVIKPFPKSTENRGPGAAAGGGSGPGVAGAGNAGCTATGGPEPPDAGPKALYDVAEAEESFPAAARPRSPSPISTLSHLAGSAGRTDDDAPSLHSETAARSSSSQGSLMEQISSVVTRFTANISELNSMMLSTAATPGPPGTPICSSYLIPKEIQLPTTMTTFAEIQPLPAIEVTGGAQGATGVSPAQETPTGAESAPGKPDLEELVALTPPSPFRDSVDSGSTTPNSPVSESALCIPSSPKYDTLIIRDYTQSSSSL

Emax | Compound
63 to 99% | CN(C)C1CCN(c2cccc(C(=O)NC34CC5CC(CC(NC(=O)c6ccccn6)(C5)C3)C4)n2)C1 (stereo not shown) [Example 199, 6-(3-Dimethylamino-pyrrolidin-1-yl)-pyridine-2-carboxylic acid {3-[(pyridine-2-carbonyl)-amino]-adamantan-1-yl}-amide]
63 to 99% | O=C(NC12CC3CC(C1)CC(NC(=O)c1cccc(N4CCC(O)CC4)n1)(C3)C2)c1ccccn1 [Example 200, 4-Hydroxy-3,4,5,6-ttrahydro-2H-[1,2′]bipyridinyl-6′-carboxylic acid {3-[(pyridine-2-carbonyl)-amino]-adamantan-1-yl}-amide]
63 to 99% | O=C(NC12CC3CC(C1)CC(NC(=O)c1cccc(N4CCC(O)C4)n1)(C3)C2)c1ccccn1 (stereo not shown) [Example 201, 6-(3-Hydroxy-pyrrolidin-1-yl)-pyridine-2-carboxylic acid {3-[(pyridine-2-carbonyl)-amino]-adamantan-1-yl}-amide]
63 to 99% | CN(CCO)c1cccc(C(=O)NC23CC4CC(CC(NC(=O)c5ccccn5)(C4)C2)C3)n1 [Example 202, 6-[(2-Hydroxy-ethyl)-methyl-amino]-pyridine-2-carboxylic acid {3-[(pyridine-2-carbonyl)-amino]-adamantan-1-yl}-amide]
63 to 99% | O=C(NC12CC3CC(C1)CC(NC(=O)c1cccc(NCCCO)n1)(C3)C2)c1ccccn1 [Example 203, 6-(3-Hydroxy-propylamino)-pyridine-2-carboxylic acid {3-[(pyridine-2-carbonyl)-amino]-adamantan-1-yl}-amide]
63 to 99% | Cc1cccc(C(=O)NC23CC4CC(C2)CC(NC(=O)c2cccc(N(C)CCN(C)C)n2)(C4)C3)n1 [Example 204, 6-[(2-Dimethylamino-ethyl)-methyl-amino]-pyridine-2-carboxylic acid{3-[(6-methyl-pyridine-2-carbonyl)-amino]-adamantan-1-yl}-amide]
63 to 99% | Cc1cccc(C(=O)NC23CC4CC(C2)CC(NC(=O)c2cccc(N5CCC(O)C5)n2)(C4)C3)n1 (stereo not shown) [Example 205, 6-(3-Hydroxy-pyrrolidin-1-yl)-pyridine-2-carboxylic acid{3-[(6-methyl-pyridine-2-carbonyl)-amino]-adamantan-1-yl}-amide]
63 to 99% | Cc1cccc(C(=O)NC23CC4CC(C2)CC(NC(=O)c2cccc(N5CCC(O)CC5)n2)(C4)C3)n1 [Example 206, 4-Hydroxy-3,4,5,6-tetrahydro-2H-[1,2′]bipyridinyl-6′-carboxylic acid{3-[(6-methyl-pyridine-2-carbonyl)-amino]-adamantan-1-yl}-amide]
63 to 99% | COCCN(C)c1cccc(C(=O)NC23CC4CC(CC(NC(=O)c5cccc(C)n5)(C4)C2)C3)n1 [Example 207, 6-[(2-Methoxy-ethyl)-methyl-amino]-pyridine-2-carboxylic acid{3-[(6-methyl-pyridine-2-carbonyl)-amino]-adamantan-1-yl}-amide]
63 to 99% | Cc1cccc(C(=O)NC23CC4CC(C2)CC(NC(=O)c2cccc(NCCO)n2)(C4)C3)n1 [Example 208, 6-(2-Hydroxy-ethylamino)-pyridine-2-carboxylic acid {3-[(6-methyl-pyridine-2-carbonyl)-amino]-adamantan-1-yl}-amide]
63 to 99% | Cc1cccc(C(=O)NC23CC4CC(C2)CC(NC(=O)c2cccc(N(C)CCO)n2)(C4)C3)n1 [Example 209, 6-[(2-Hydroxy-ethyl)-methyl-amino]-pyridine-2-carboxylic acid {3-[(6-methyl-pyridine-2-carbonyl)-amino]-adamantan-1-yl}-amide]
63 to 99% | Cc1cccc(C(=O)NC23CC4CC(C2)CC(NC(=O)c2cccc(NCCCO)n2)(C4)C3)n1 [Example 210, 6-(3-Hydroxy-propylamino)-pyridine-2-carboxylic acid {3-[(6-methyl-pyridine-2-carbonyl)-amino]-adamantan-1-yl}-amide]
63 to 99% | O=C(NC12CC3CC(C1)CC(NC(=O)c1cccc(NCCO)n1)(C3)C2)c1cccc(F)c1 [Example 212, 6-(2-Hydroxy-ethylamino)-pyridine-2-carboxylic acid [3-(3-fluoro-benzoylamino)-adamantan-1-yl]-amide]
63 to 99% | CN(CCO)c1cccc(C(=O)NC23CC4CC(CC(NC(=O)c5cccc(F)c5)(C4)C2)C3)n1 [Example 213, 6-[(2-Hydroxy-ethyl)-methyl-amino]-pyridine-2-carboxylic acid [3-(3-fluoro-benzoylamino)-adamantan-1-yl]-amide]
63 to 99% | O=C(NC12CC3CC(C1)CC(NC(=O)c1cccc(NCCCO)n1)(C3)C2)c1cccc(F)c1 [Example 214, 6-(3-Hydroxy-propylamino)-pyridine-2-carboxylic acid [3-(3-fluoro-benzoylamino)-adamantan-1-yl]-amide]
63 to 99% | O=C(NC12CC3CC(C1)CC(NC(=O)c1cccc(N4CCOCC4)n1)(C3)C2)c1cccc(F)c1 [Example 215, 6-Morpholin-4-yl-pyridine-2-carboxylic acid [3-(3-fluoro-benzoylamino)-adamantan-1-yl]-amide]

Emax | Compound
63 to 99% | CN1CCN(c2cccc(C(=O)NC34CC5CC(CC(NC(=O)c6cccc(F)c6)(C5)C3)C4)n2)CC1 [Example 216, 6-(4-Methyl-piperazin-1-yl)-pyridine-2-carboxylic acid [3-(3-fluoro-benzoylamino)-adamantan-1-yl]-amide]
63 to 99% | CN(C)C1CCN(c2cccc(C(=O)NC34CC5CC(CC(NC(=O)c6cccc(F)c6)(C5)C3)C4)n2)C1 (stereo not shown) [Example 217, 6-(3-Dimethylamino-pyrrolidin-1-yl)-pyridine-2-carboxylic acid [3-(3-fluoro-benzoylamino)-adamantan-1-yl]-amide]
63 to 99% | O=C(NC12CC3CC(C1)CC(NC(=O)c1cccc(N4CCC(O)CC4)n1)(C3)C2)c1cccc(F)c1 [Example 218, 4-Hydroxy-3,4,5,6-tetrahydro-2H-[1,2′]-bipyridinyl-6′-carboxylic acid [3-(3-fluoro-benzoylamino)-adamantan-1-yl]-amide]
63 to 99% | O=C(NC12CC3CC(C1)CC(NC(=O)c1cccc(N4CCC(O)C4)n1)(C3)C2)c1cccc(F)c1 (stereo not shown) [Example 219, 6-(3-Hydroxy-pyrrolidin-1-yl)-pyridine-2-carboxylic acid [3-(3-fluoro-benzoylamino)-adamantan-1-yl]-amide]
63 to 99% | COCCCNc1cccc(C(=O)NC23CC4CC(CC(NC(=O)c5ccccn5)(C4)C2)C3)n1 [Example 220, 6-(3-Methoxy-propylamino)-pyridine-2-carboxylic acid {3-[(pyridine-2-carbonyl)-amino]-adamantan-1-yl}-amide]
63 to 99% | CN(C)CCCN(C)c1cccc(C(=O)NC23CC4CC(CC(NC(=O)c5ccccn5)(C4)C2)C3)n1 [Example 221, 6-[(3-Dimethylamino-propyl)-methyl-amino]-pyridine-2-carboxylic acid {3-[(pyridine-2-carbonyl)-amino]-adamantan-1-yl}-amide]
63 to 99% | CN(C)CCNc1cccc(C(=O)NC23CC4CC(CC(NC(=O)c5ccccn5)(C4)C2)C3)n1 [Example 222, 6-(2-Dimethylamino-ethylamino)-pyridine-2-carboxylic acid {3-[(pyridine-2-carbonyl)-amino]-adamantan-1-yl}-amide]
63 to 99% | CC(=O)NCCNc1cccc(C(=O)NC23CC4CC(CC(NC(=O)c5ccccn5)(C4)C2)C3)n1 [Example 223, 6-(2-Acetylamino-ethylamino)-pyridine-2-carboxylic acid {3-[(pyridine-2-carbonyl)-amino]-adamantan-1-yl}-amide]
63 to 99% | COCCNc1cccc(C(=O)NC23CC4CC(CC(NC(=O)c5ccccn5)(C4)C2)C3)n1 [Example 224, 6-(2-Methoxy-ethylamino)-pyridine-2-carboxylic acid {3-[(pyridine-2-carbonyl)-amino]-adamantan-1-yl}-amide]
63 to 99% | COCCN(C)c1cccc(C(=O)NC23CC4CC(CC(NC(=O)c5ccccn5)(C4)C2)C3)n1 [Example 225, 6-[(2-Methoxy-ethyl)-methyl-amino]-pyridine-2-carboxylic acid {3-[(pyridine-2-carbonyl)-amino]-adamantan-1-yl}-amide]
63 to 99% | CN(C)CCCNc1cccc(C(=O)NC23CC4CC(CC(NC(=O)c5ccccn5)(C4)C2)C3)n1 [Example 226, 6-(3-Dimethylamino-propylamino)-pyridine-2-carboxylic acid {3-[(pyridine-2-carbonyl)-amino]-adamantan-1-yl}-amide]
63 to 99% | CN(C)CCN(C)c1cccc(C(=O)NC23CC4CC(CC(NC(=O)c5ccccn5)(C4)C2)C3)n1 [Example 227, 6-[(2-Dimethylamino-ethyl)-methyl-amino]-pyridine-2-carboxylic acid {3-[(pyridine-2-carbonyl)-amino]-adamantan-1-yl}-amide]
63 to 99% | O=C(NC12CC3CC(C1)CC(NC(=O)c1cccc(N4CCC[C@H]4CO)n1)(C3)C2)c1ccccn1 [Example 228, 6-((S)-2-Hydroxymethyl-pyrrolidin-1-yl)-pyridine-2-carboxylic acid {3-[(pyridine-2-carbonyl)-amino]-adamantan-1-yl}-amide]
63 to 99% | O=C(NC12CC3CC(C1)CC(NC(=O)c1cccc(N4CCC[C@@H]4CO)n1)(C3)C2)c1ccccn1 [Example 229, 6-((R)-2-Hydroxymethyl-pyrrolidin-1-yl)-pyridine-2-carboxylic acid {3-[(pyridine-2-carbonyl)-amino]-adamantan-1-yl}-amide]
63 to 99% | NC(=O)[C@@H]1CCCN1c1cccc(C(=O)NC23CC4CC(CC(NC(=O)c5ccccn5)(C4)C2)C3)n1 [Example 230, 6-((S)-2-Carbamoyl-pyrrolidin-1-yl)-pyridine-2-carboxylic acid {3-[(pyridine-2-carbonyl)-amino]-adamantan-1-yl}-amide]
